Test results published in ChEMBL document CHEMBL3352620, “Development of potent antagonists for formyl peptide receptor 1 based on Boc-Phe-D-Leu-Phe-D-Leu-Phe-OH” (Bioorg Med Chem, 2014).
Active and inactive are the calls of the source. No cut-off for these calls is given here. Square brackets hold non-standard residues; d marks the D form. Peptide text beside a SMILES is read from it. * marks the point of attachment. Boc = CC(C)(C)OC(=O)*

Key:
[1] = biological target: T1, fMet-Leu-Phe receptor (Homo sapiens, UniProt P21462); assay: Antagonist activity at formyl peptide receptor in human HL60 cells assessed as inhibition of intracellular calcium mobilization incubated for 5 mins prior to fMLP challenge by Fura-2 method; assay type: functional, cell-based, HL-60
T1 sequence (P21462 whole entry): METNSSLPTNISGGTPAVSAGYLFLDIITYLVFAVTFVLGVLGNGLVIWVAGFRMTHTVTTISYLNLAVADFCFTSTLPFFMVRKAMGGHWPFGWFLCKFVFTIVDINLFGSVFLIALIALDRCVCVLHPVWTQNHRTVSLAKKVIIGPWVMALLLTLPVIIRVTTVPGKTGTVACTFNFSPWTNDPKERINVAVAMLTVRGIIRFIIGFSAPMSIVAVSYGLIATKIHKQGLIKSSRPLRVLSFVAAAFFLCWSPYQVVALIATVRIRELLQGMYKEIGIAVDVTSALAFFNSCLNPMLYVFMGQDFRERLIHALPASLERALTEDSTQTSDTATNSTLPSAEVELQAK

[2] = biological target: T2, fMet-Leu-Phe receptor (Homo sapiens) (UniProt P21462); assay: Agonist activity at formyl peptide receptor in human HL60 cells at 10 uM by Fura-2 method; assay type: cell-based; conditions: HL-60
T2 sequence (whole entry): T1 sequence (P21462 whole entry)

[3] = biological target: T2, fMet-Leu-Phe receptor (Homo sapiens); assay: Antagonist activity at formyl peptide receptor in human HL60 cells assessed as fMLP EC50 at 1 uM incubated for 5 mins prior to fMLP challenge by Fura-2 method; assay type: cell-based; conditions: HL-60
[4] = biological target: T2, fMet-Leu-Phe receptor (Homo sapiens); assay: Antagonist activity at formyl peptide receptor in human HL60 cells assessed as inhibition of MMK1-induced calcium mobilization at 1 to 10 uM incubated for 5 mins prior to MMk1 challenge by Fura-2 method; assay type: functional, cell-based; conditions: HL-60
[5] = biological target: T1, fMet-Leu-Phe receptor; assay: Antagonist activity at formyl peptide receptor in human HL60 cells assessed as inhibition of fMLP-induced calcium mobilization incubated for 5 mins prior to fMLP challenge by Fura-2 method

| Kd [1] | Structure (SMILES) | other results |
| --- | --- | --- |
| 6.9 nM | CC(C)C[C@@H](NC(=O)[C@H](CC1=CCCCC1)NC(=O)[C@@H](CC(C)C)NC(=O)[C@H](Cc1ccc(C(=O)c2ccccc2)cc1)NC(=O)OC(C)(C)C)C(=O)N[C@@H](CC1CCCCC1)C(=O)O | – |
| 120 nM | CC(C)C[C@@H](NC(=O)[C@H](Cc1ccccc1)NC(=O)[C@@H](CC(C)C)NC(=O)[C@H](Cc1ccccc1)NC(=O)OC(C)(C)C)C(=O)N[C@@H](Cc1cn(C(=O)OC(C)(C)C)c2ccccc12)C(=O)O | – |
| 190 nM | CC(C)C[C@@H](NC(=O)[C@H](Cc1ccccc1)NC(=O)[C@@H](CC(C)C)NC(=O)[C@H](Cc1c[nH]c2ccccc12)NC(=O)OC(C)(C)C)C(=O)N[C@@H](Cc1ccccc1)C(=O)O | – |
| 130 nM | CC(C)C[C@H](NC(=O)[C@@H](CC(C)C)NC(=O)[C@H](Cc1ccccc1)NC(=O)[C@@H](CC(C)C)NC(=O)[C@H](Cc1ccccc1)NC(=O)OC(C)(C)C)C(=O)O | – |
| 16 nM | CC(C)C[C@@H](NC(=O)[C@H](Cc1ccccc1)NC(=O)[C@@H](CC(C)C)NC(=O)[C@H](Cc1ccc(C(=O)c2ccccc2)cc1)NC(=O)OC(C)(C)C)C(=O)N[C@@H](Cc1ccccc1)C(=O)O | inhibition [4]: inactive; IC50 [5]: 420 nM |
| 150 nM | CC(C)C[C@@H](NC(=O)[C@H](Cc1ccccc1)NC(=O)[C@@H](CC(C)C)NC(=O)[C@H](Cc1ccccc1)NC(=O)OC(C)(C)C)C(=O)N[C@@H](Cc1c[nH]c2ccccc12)C(=O)O | – |
| 830 nM | CC(C)C[C@@H](NC(=O)[C@H](Cc1ccccc1)NC(=O)OC(C)(C)C)C(=O)N[C@H](C(=O)N[C@H](CC(C)C)C(=O)N[C@@H](Cc1ccccc1)C(=O)O)[C@@H](C)OC(C)(C)C | – |
| 62 nM | CC(C)C[C@@H](NC(=O)[C@H](Cc1ccccc1)NC(=O)[C@@H](CC(C)C)NC(=O)[C@H](Cc1ccc(OC(C)(C)C)cc1)NC(=O)OC(C)(C)C)C(=O)N[C@@H](Cc1ccccc1)C(=O)O | – |
| 77 nM | CC(C)C[C@@H](NC(=O)[C@H](Cc1ccccc1)NC(=O)[C@@H](CC(C)C)NC(=O)[C@H](Cc1ccccc1)NC(=O)OC(C)(C)C)C(=O)N[C@@H](CC1CCCCC1)C(=O)O | – |
| 90 nM | CC(C)C[C@@H](NC(=O)[C@H](Cc1ccccc1)NC(=O)[C@@H](CC(C)C)NC(=O)[C@H](Cc1cn(C=O)c2ccccc12)NC(=O)OC(C)(C)C)C(=O)N[C@@H](Cc1ccccc1)C(=O)O | – |
| 150 nM | CC(C)C[C@@H](NC(=O)[C@H](Cc1ccccc1)NC(=O)[C@@H](CC(C)C)NC(=O)[C@H](CCCCNC(=O)C1CCCCC1)NC(=O)OC(C)(C)C)C(=O)N[C@@H](Cc1ccccc1)C(=O)O | – |
| 350 nM | CC(C)C[C@@H](NC(=O)[C@H](Cc1ccccc1)NC(=O)[C@@H](CC(C)C)NC(=O)[C@H](Cc1ccccc1)NC(=O)OC(C)(C)C)C(=O)N[C@@H](C)C(=O)O | Activity [2]: inactive |
| > 1000 nM | CC(C)C[C@@H](NC(=O)[C@H](CCCCNC(=O)OC(C)(C)C)NC(=O)[C@@H](CC(C)C)NC(=O)[C@H](Cc1ccccc1)NC(=O)OC(C)(C)C)C(=O)N[C@@H](Cc1ccccc1)C(=O)O | – |
| 170 nM | CC(C)C[C@@H](NC(=O)[C@H](C)NC(=O)OC(C)(C)C)C(=O)N[C@@H](Cc1ccccc1)C(=O)N[C@H](CC(C)C)C(=O)N[C@@H](Cc1ccccc1)C(=O)O | Activity [2]: inactive |
| 140 nM | CC(C)C[C@@H](NC(=O)[C@H](Cc1ccccc1)NC(=O)[C@@H](CC(C)C)NC(=O)[C@@H](NC(=O)OC(C)(C)C)[C@@H](C)OC(C)(C)C)C(=O)N[C@@H](Cc1ccccc1)C(=O)O | – |
| 510 nM | CC(C)C[C@@H](NC(=O)[C@H](CC(=O)OC(C)(C)C)NC(=O)[C@@H](CC(C)C)NC(=O)[C@H](Cc1ccccc1)NC(=O)OC(C)(C)C)C(=O)N[C@@H](Cc1ccccc1)C(=O)O | – |
| 280 nM | CC(C)C[C@@H](NC(=O)[C@H](C)NC(=O)[C@@H](CC(C)C)NC(=O)[C@H](Cc1ccccc1)NC(=O)OC(C)(C)C)C(=O)N[C@@H](Cc1ccccc1)C(=O)O | Activity [2]: inactive |

Second part, the molecule before the results:

| Structure (SMILES) | Kd [1] | other results |
| --- | --- | --- |
| CC(C)C[C@@H](NC(=O)[C@H](Cc1ccccc1)NC(=O)[C@H](C)NC(=O)[C@H](Cc1ccccc1)NC(=O)OC(C)(C)C)C(=O)N[C@@H](Cc1ccccc1)C(=O)O | 260 nM | Activity [2]: inactive |
| CC(C)C[C@@H](NC(=O)[C@H](Cc1ccccc1)NC(=O)[C@@H](CC(C)C)NC(=O)[C@H](Cc1ccccc1)NC(=O)OC(C)(C)C)C(=O)N[C@@H](Cc1ccccc1)C(=O)O (Boc-F[dL]F[dL]F-OH) | – | inhibition [3]: inactive; Activity [2]: inactive |
| CC(C)C[C@@H](NC(=O)[C@H](CC1=CCCCC1)NC(=O)[C@@H](CC(C)C)NC(=O)[C@H](Cc1ccc(C(=O)c2ccccc2)cc1)NC(=O)OC(C)(C)C)C(=O)N[C@@H](Cc1ccccc1)C(=O)O | 2.1 nM | inhibition [4]: inactive; IC50 [5]: 140 nM |
| CC(C)C[C@H](NC(=O)[C@@H](CC(C)C)NC(=O)[C@H](Cc1ccccc1)NC(=O)OC(C)(C)C)C(=O)N[C@H](CC(C)C)C(=O)N[C@@H](Cc1ccccc1)C(=O)O | 200 nM | – |
| CC(C)C[C@@H](NC(=O)[C@H](Cc1ccccc1)NC(=O)[C@@H](CC(C)C)NC(=O)[C@H](Cc1ccc(Cl)cc1)NC(=O)OC(C)(C)C)C(=O)N[C@@H](Cc1ccccc1)C(=O)O | 75 nM | – |
| CC(C)C[C@@H](NC(=O)[C@H](Cc1ccccc1)NC(=O)OC(C)(C)C)C(=O)N[C@@H](Cc1ccccc1)C(=O)N[C@H](CC(C)C)C(=O)N[C@H](C(=O)O)C(C)C | 260 nM | – |
| CC(C)C[C@@H](NC(=O)[C@H](Cc1ccccc1)NC(=O)[C@@H](CC(C)C)NC(=O)[C@H](CC1CCCCC1)NC(=O)OC(C)(C)C)C(=O)N[C@@H](Cc1ccccc1)C(=O)O | 66 nM | – |
| CC(C)C[C@@H](NC(=O)[C@H](Cc1ccccc1)NC(=O)[C@@H](CC(C)C)NC(=O)[C@H](Cc1ccccc1)NC(=O)OC(C)(C)C)C(=O)N[C@@H](COC(C)(C)C)C(=O)O | 180 nM | – |
| CC(C)C[C@@H](NC(=O)[C@H](Cc1ccccc1)NC(=O)OC(C)(C)C)C(=O)N[C@H](C(=O)N[C@H](CC(C)C)C(=O)N[C@@H](Cc1ccccc1)C(=O)O)C(C)C | > 1000 nM | – |
| CSCC[C@H](NC(=O)[C@@H](CC(C)C)NC(=O)[C@H](Cc1ccccc1)NC(=O)OC(C)(C)C)C(=O)N[C@H](CC(C)C)C(=O)N[C@@H](Cc1ccccc1)C(=O)O | 130 nM | – |
| CC(C)C[C@H](NC(=O)OC(C)(C)C)C(=O)N[C@H](CC(C)C)C(=O)N[C@@H](Cc1ccccc1)C(=O)N[C@H](CC(C)C)C(=O)N[C@@H](Cc1ccccc1)C(=O)O | 200 nM | – |
| CC(C)C[C@@H](NC(=O)[C@H](Cc1ccc(C(=O)c2ccccc2)cc1)NC(=O)[C@@H](CC(C)C)NC(=O)[C@H](Cc1ccccc1)NC(=O)OC(C)(C)C)C(=O)N[C@@H](Cc1ccccc1)C(=O)O | 150 nM | – |
| CC(C)C[C@@H](NC(=O)[C@H](Cc1ccccc1)NC(=O)[C@@H](CC(C)C)NC(=O)[C@H](CCCCN)NC(=O)OC(C)(C)C)C(=O)N[C@@H](Cc1ccccc1)C(=O)O | 730 nM | – |
| CC(C)C[C@@H](NC(=O)[C@H](CC1CCCCC1)NC(=O)[C@@H](CC(C)C)NC(=O)[C@H](Cc1ccccc1)NC(=O)OC(C)(C)C)C(=O)N[C@@H](Cc1ccccc1)C(=O)O | 25 nM | – |
| CC(C)C[C@@H](NC(=O)[C@H](Cc1ccccc1)NC(=O)[C@@H](CC(C)C)NC(=O)[C@H](COC(C)(C)C)NC(=O)OC(C)(C)C)C(=O)N[C@@H](Cc1ccccc1)C(=O)O | 100 nM | – |
| CC(C)C[C@@H](NC(=O)[C@H](Cc1ccccc1)NC(=O)[C@@H](CC(C)C)NC(=O)[C@H](Cc1ccccc1)NC(=O)OC(C)(C)C)C(=O)N[C@@H](Cc1ccc(OC(C)(C)C)cc1)C(=O)O | 68 nM | – |
| CC(C)C[C@@H](NC(=O)[C@H](Cc1ccccc1)NC(=O)OC(C)(C)C)C(=O)N[C@@H](Cc1ccccc1)C(=O)N[C@H](CC(C)C)C(=O)N[C@H](C(=O)O)[C@@H](C)OC(C)(C)C | 130 nM | – |
| CC(C)C[C@@H](NC(=O)[C@H](Cc1ccccc1)NC(=O)[C@@H](CC(C)C)NC(=O)[C@H](CCCCNC(=O)c1ccccc1)NC(=O)OC(C)(C)C)C(=O)N[C@@H](Cc1ccccc1)C(=O)O | 140 nM | – |
| CC(C)C[C@@H](NC(=O)[C@H](Cc1ccccc1)NC(=O)OC(C)(C)C)C(=O)N[C@@H](Cc1ccccc1)C(=O)N[C@@H](C)C(=O)N[C@@H](Cc1ccccc1)C(=O)O | 420 nM | Activity [2]: inactive |
| CC(C)C[C@@H](NC(=O)[C@H](Cc1ccccc1)NC(=O)[C@@H](CC(C)C)NC(=O)[C@H](Cc1cn(C(=O)OC(C)(C)C)c2ccccc12)NC(=O)OC(C)(C)C)C(=O)N[C@@H](Cc1ccccc1)C(=O)O | 69 nM | – |
| CC(C)C[C@@H](NC(=O)[C@H](Cc1ccccc1)NC(=O)[C@@H](CC(C)C)NC(=O)[C@H](Cc1ccccc1)NC(=O)OC(C)(C)C)C(=O)N[C@@H](Cc1ccc(C(=O)c2ccccc2)cc1)C(=O)O | 150 nM | – |
